Consider one substance from patent US20240050513A1, “COMPOSITION FOR PREVENTING, AMELIORATING, OR TREATING DISEASE CAUSED BY PROTEIN NITRATION […] WITH TERMINAL TYROSINE AS EFFECTIVE COMPONENT” (INDUSTRY-ACADEMIC COOPERATION FOUNDATION GYEONGSANG …, priority 2021, published 2024).

In experiment [1] the test system is glutamine synthetase (GS). The experiment in a line: GS activity and GS tyrosine nitration in PFC, chronic immobilization stress model. The class given is in vivo, C57BL/6 mice. As to conditions: stress group. How it is done: Using the prefrontal cortex (PFC) lysate samples from mice obtained after the completion of chronic immobilization stress, GS activity and GS expression level were measured by following the method described above.
Furthermore, the level of tyrosine nitration within GS was measured by using immunoprecipitation (IP)-WB. The immunoprecipitation analysis of tyrosine-nitrated GS was performed using an anti-nitrotyrosine antibody (ab61392, Abcam) and Protein A/G PLUS-Agarose (Santa Cruz) according to the manufacturer's protocol.

The test system of experiment [2] is chronic immobilization stress C57BL/6 mice. The experiment in a line: Cognitive function (ORT/OLT) in chronic immobilization stress model. The class given is in vivo. The note with it: stress group, peptide-supplemented diet vs normal diet. Here is the method:
(§1) To analyze the long-term memory capacity of animals following the peptide diet of the present invention, both the object recognition test (ORT) and object location recognition test (OLT) were conducted (FIG. 1). The tests consisted of three phases: habituation, familiarization, and test. During the habituation phase, the animals were acclimated to the testing apparatus for 10 minutes per day over two days. On the third day at the familiarization phase, the animals were allowed to explore two identical objects for 10 minutes. Subsequently, on the fourth day at the test phase, one of the objects was replaced with a novel object, and the animals were allowed to explore for 10 minutes, with result recorded during the initial 5 minutes was used as test data. The object recognition test (ORT) index was calculated using the following formula.
(§2) Discrimination index=(N−F)/(N+F) • N: Time spent for exploring new object • F: Time spent for exploring familiar object
After 24 hours of performing the ORT, the location of the familiar object was changed, and the animals were allowed to explore for 5 minutes. During the total exploration time, the ratio of time spent exploring the object with a changed location was calculated to determine the object location recognition test (OLT) index.
A total of 28 seven-week-old male C57BL/6 mice were divided into two groups: a control group and a stress group. […]

Experiment [3] relates to 3xTG-AD mice. The experiment in a line: Cognitive function (ORT) and hippocampal ROS/RNS in Alzheimer's disease model. The class given is in vivo, mouse. As to conditions: 1xYQ diet. How it is done:
as §1, §2
The cognitive function of a 2-month-old mouse 3xTG-AD, which is a mouse model of modified Alzheimer's disease gene, and a 2-month-old normal C57BL/6 mouse was examined. After the examination, both were divided into two groups, and they were fed with either a normal diet (ND) or a diet supplemented with tyrosine-containing peptide (1xYQ). […]

The test system of experiment [4] is glutamatergic neurons of 3xTG-vGluT2-Cre::tdTomato mice. The experiment in a line: sEPSC of glutamatergic neurons in mPFC of fluorescent labeled Alzheimer's disease model. In kind it is in vivo, mouse. As to conditions: 1xYQ diet from 2 months, measured at 6 to 8 months.
Experimental: At two months of age, 3xTG-vGluT2-Cre::tdTomato mice were fed with diet supplemented with tyrosine-containing peptide (1xYQ). At 6 to 8 months of age, the spontaneous excitatory postsynaptic current (sEPSC) was measured to evaluate the activity of glutamatergic neurons. For recording membrane currents, a 200 μm-thick brain cross-section was placed in a recording chamber filled with artificial cerebrospinal fluid at a rate of 1.5 to 2 ml/min, and, under a holding potential of −70 mV, whole-cell voltage clamp recordings were obtained from visually identified glutamatergic neurons in the medial prefrontal cortex (mPFC). Glutamatergic currents were isolated by the addition of picrotoxin (100 μM). All recordings were performed at 30±2° C., and, as the pipette solution, a solution containing 30 mM KCl, 5 mM CaCl2, 10 mM EGTA, 10 mM HEPES, 2 mM MgATP, 0.5 mM Na2GTP, and 5 mM phosphocreatine was used.

Take tyrosine-glutamine [YQ]: the “tyrosine nitration level of GS” value in experiment [1] (IP-WB, peptide diet vs normal diet) is “statistically significant decrease”. For the same substance, the GS activity result in experiment [1] (peptide diet (330 mg/kg) vs normal diet) is listed as “statistically significant increase”. Besides, in experiment [2], the cognitive function entry is recorded as “enhanced cognitive function”. The “cognitive function (ORT)” value in experiment [3] (dementia animal model 3xTG-AD, 2 to 8 months of age) was “slight improvement”. Further, the “ROS/RNS level in the hippocampal tissues” value in experiment [3] (dementia animal model) is listed as “decrease”. In experiment [4], the “glutamatergic neuronal activity (sEPSC)” value is listed as “increased”.
